Results from ChEMBL document CHEMBL5365531, “Structure-Activity Relationship Studies of SARS-CoV-2 Main Protease Inhibitors Containing 4-Fluorobenzothiazole-2-carbonyl Moieties” (J Med Chem, 2023).

Legend:
[1] = system: SARS-CoV-2; assay: Antiviral activity against SARS-CoV-2 JPN/TY/WK-521 infected in Vero E6 cells preincubated with cells for 1 day followed by viral infection and measured after 3 days by qRT-PCR analysis; assay type: functional, organism-based; conditions: Severe acute respiratory syndrome coronavirus 2, JPN/TY/WK-521, Vero C1008
[2] = Cytotoxicity against African green monkey Vero E6 cells incubated for 3 days by WST-8 assay; assay type: toxicity, cell-based, Vero C1008; conditions: chlorocebus sabaeus, time 3 day
[3] = system: SARS-CoV-2; assay: (§1) Antiviral activity against SARS-CoV-2 JPN/TY/WK-521 infected in Vero E6 cells assessed as fold change preincubated with cells for 1 day followed by viral infection and measured after 3 days by qRT-PCR analysis relative to TKB245; assay type: functional, Severe acute respiratory syndrome coronavirus 2; conditions: time 4 day
[4] = system: SARS-CoV-2; assay: Antiviral activity against SARS-CoV-2 infected in Vero E6 cells preincubated with cells for 1 day followed by viral infection and measured after 3 days by qRT-PCR analysis; assay type: functional, organism-based; conditions: Severe acute respiratory syndrome coronavirus 2, Vero C1008
[5] = system: SARS-CoV-2; assay: Antiviral activity against SARS-CoV-2 infected in Vero E6 cells assessed as fold change preincubated with cells for 1 day followed by viral infection and measured after 3 days by qRT-PCR analysis relative to YH-53; assay type: functional, Severe acute respiratory syndrome coronavirus 2; conditions: time 4 day
[6] = system: SARS-CoV-2; assay: as §1, with “7-fluoro-N-((S)-1-(((S)-1-(4-fluorobenzo[d]thiazol-2-yl)-1-oxo-3-((S)-2-oxopyrrolidin-3-yl)propan-2-yl)amino)-3,3-dimethyl-1-oxobutan-2-yl)-4-methoxy-1H-indole-2-carboxamide” for “TKB245”; assay type: functional, Severe acute respiratory syndrome coronavirus 2; conditions: time 4 day
[7] = system: PBMC; assay: Cytotoxicity against human PBMC cells assessed as reduction in cell viability at 3 uM incubated for 12 days by CCK-8 assay; assay type: toxicity, cell-based; conditions: 288 h, time 12 day
[8] = system: MOLT-4; assay: Cytotoxicity against human MOLT-4 cells assessed as reduction in cell viability at 3 uM incubated for 12 days by CCK-8 assay; assay type: toxicity, cell-based; conditions: molt-4, 288 h, time 12 day
[9] = system: MT2; assay: Cytotoxicity against human MT2 cells assessed as reduction in cell viability at 3 uM incubated for 12 days by CCK-8 assay; assay type: toxicity, cell-based; conditions: mt2, 288 h, time 12 day

SMILES	EC50 [1]	CC50 at 72 h [2]	fold change (FC) [3]	fold change (FC) [6]	further results
CC(C)(F)[C@H](NC(=O)C(F)(F)F)C(=O)N1C[C@H]2[C@@H]([C@H]1C(=O)N[C@@H](C[C@@H]1CCNC1=O)C(=O)c1nc3c(F)cccc3s1)C2(C)C	250 nM	> 100000 nM	21	–	–
COc1ccc(F)c2[nH]c(C(=O)N[C@H](C(=S)N[C@@H](C[C@@H]3CCNC3=O)C(=O)c3nc4c(F)cccc4s3)C(C)(C)C)cc12	–	> 100000 nM	–	–	EC50 [4]: 340 nM; fold change (FC) [5]: 0.16
COc1cccc2[nH]c(C(=O)N3C[C@H]4[C@@H]([C@H]3C(=O)N[C@@H](C[C@@H]3CCNC3=O)C(=O)c3nc5ccccc5s3)C4(C)C)cc12	2500 nM	> 100000 nM	–	11	–
CC(C)(C)[C@H](NC(=O)C(F)(F)F)C(=O)N1C[C@H]2[C@@H]([C@H]1C(=O)N[C@@H](C[C@@H]1CCNC1=O)C(=O)c1nc3ccccc3s1)C2(C)C	15 nM	> 100000 nM	–	0.071	–
COc1cccc2[nH]c(C(=O)N[C@H](C(=O)N[C@@H](C[C@@H]3CCNC3=O)C(=O)c3nc4ccccc4s3)C(C)(C)C)cc12	–	> 100000 nM	–	–	EC50 [4]: 2200 nM
CC1(C)[C@@H]2[C@@H](C(=O)N[C@@H](C[C@@H]3CCNC3=O)C(=O)c3nc4c(F)cccc4s3)N(C(=O)c3cc4c(F)ccc(F)c4[nH]3)C[C@@H]21	750 nM	> 100000 nM	–	3.1	–
CC(C)C(=O)OC[C@H]1O[C@@H](n2ccc(NO)nc2=O)[C@H](O)[C@@H]1O [MOLNUPIRAVIR]	–	–	–	–	Activity [7]: Non-Toxic; Activity [8]: Non-Toxic; Activity [9]: Toxic
CC(C)(C)[C@H](NC(=O)C(F)(F)F)C(=O)N1C[C@H]2[C@@H]([C@H]1C(=O)N[C@@H](C[C@@H]1CCNC1=O)C(=O)c1nc3c(Br)cccc3s1)C2(C)C	63 nM	> 100000 nM	2.9	–	–
COc1ccc(F)c2[nH]c(C(=O)N3C[C@H]4[C@@H]([C@H]3C(=O)N[C@@H](C[C@@H]3CCNC3=O)C(=O)c3nc5c(F)cccc5s3)C4(C)C)cc12	560 nM	> 100000 nM	–	2.7	–
CC1(C)[C@@H]2[C@@H](C(=O)N[C@@H](C[C@@H]3CCNC3=O)C(=O)c3nc4c(F)cccc4s3)N(C(=O)[C@H](CC(F)(F)F)NC(=O)C(F)(F)F)C[C@@H]21	2800 nM	> 100000 nM	34	–	–
CC1(C)[C@@H]2[C@@H](C(=O)N[C@@H](C[C@@H]3CCNC3=O)C(=O)c3nc4c(F)cccc4s3)N(C(=O)[C@H](CCC(F)(F)F)NC(=O)C(F)(F)F)C[C@@H]21	590 nM	> 100000 nM	14	–	–
COc1ccc(F)c2[nH]c(C(=O)N[C@H](C(=O)N[C@@H](C[C@@H]3CCNC3=O)C(=O)c3nc4c(F)cccc4s3)C(C)(C)C)cc12	–	> 100000 nM	–	–	EC50 [4]: 290 nM; fold change (FC) [5]: 0.13
CC(C)(C)[C@H](NC(=O)C(F)(F)F)C(=O)N1C[C@H]2[C@@H]([C@H]1C(=O)N[C@@H](C[C@@H]1CCNC1=O)C(=O)c1nc3c(Cl)cccc3s1)C2(C)C	19 nM	> 100000 nM	0.86	–	–
CC(C)C[C@H](NC(=O)[C@@H](NC(=O)C(F)(F)F)C(C)(C)C)C(=O)N[C@@H](C[C@@H]1CCNC1=O)C(=O)c1nc2c(F)cccc2s1	360 nM	> 100000 nM	–	1	–
CC(C)(C)[C@H](NC(=O)C(F)(F)F)C(=O)NC1(C(=O)N[C@@H](C[C@@H]2CCNC2=O)C(=O)c2nc3c(F)cccc3s2)CCC(F)(F)C1 (some centres not stated)	2400 nM	> 100000 nM	90	–	–
CC(C)(C)[C@H](NC(=O)C(F)(F)F)C(=O)N1C[C@@H]2CCC[C@@H]2[C@H]1C(=O)N[C@@H](C[C@@H]1CCNC1=O)C(=O)c1nc2c(F)cccc2s1	95 nM	> 100000 nM	1.6	–	–
